Reference: article PMC12567398, “New Assay Systems to Characterize the Broad-Spectrum Antiherpesviral and Non-Herpesviral Activity of Cyclin-Dependent Kinase (CDK) 8 Inhibitors” (Pharmaceuticals, 2025)
Read-outs that look alike come from different tables or passages of the source.

Legend:
MHV-68-Luc = MHV-68-Luc luciferase reporter assay; format: cell-based, murine herpesvirus 68; conditions: Murine herpesvirus
in vitro [1] = conditions: African green monkey
in vitro [2] = conditions: human, CC50
in vitro [3] = conditions: mouse
[4] = tested on: Epstein–Barr virus P3HR-1; assay: EBV lytic assay in TPA-induced P3HR-1 cells, qPCR; format: cell-based
in vitro [5] = conditions: human
EHV-1-GFP = EHV-1-GFP antiviral assay, GFP fluorometry; format: cell-based, equine herpesvirus 1
vaccinia virus VV IHD-5 = assay: microbe, parasite or virus in culture; format: cell-based
HHV-6A-GFP = assay: HHV-6A plaque reduction assay in HFFs; conditions: read-out: Antiviral mean EC50 based on plaque assay measurements
[6] = Neutral Red uptake cell viability assay, HFF; conditions: human
[7] = Neutral Red uptake cell viability assay, MEF; conditions: mouse
[8] = Neutral Red uptake cell viability assay, Vero; conditions: African green monkey
[9] = Neutral Red uptake cell viability assay, COS-7; conditions: African green monkey
[10] = Neutral Red uptake / Alamar Blue cell viability assay, 293T; conditions: human
EHV-1 = assay: EHV-1-specific qPCR of virus release into culture medium; format: cell-based, equine herpesvirus 1; conditions: EHV-1, read-out: EC50
HCMV = tested on: HCMV; set-up: method as in ref 35, 38 (a number printed in a supplementary file, which may have a reference list of its own: not looked up in the article's list); conditions: Table S1; read-out: antiviral EC50, HCMV; cited from earlier work
RhCMV = tested on: RhCMV; set-up: method as in ref 35, 38 (a number printed in a supplementary file, which may have a reference list of its own: not looked up in the article's list); conditions: Table S1; read-out: antiviral EC50, RhCMV; cited from earlier work
ChCMV = tested on: ChCMV; set-up: method as in ref 35, 38 (a number printed in a supplementary file, which may have a reference list of its own: not looked up in the article's list); conditions: Table S1; read-out: antiviral EC50, ChCMV; cited from earlier work
MCMV = tested on: MCMV; set-up: method as in ref 35, 38 (a number printed in a supplementary file, which may have a reference list of its own: not looked up in the article's list); conditions: Table S1; read-out: antiviral EC50, MCMV; cited from earlier work
RCMV = tested on: RCMV; set-up: method as in ref 35, 38 (a number printed in a supplementary file, which may have a reference list of its own: not looked up in the article's list); conditions: Table S1; read-out: antiviral EC50, RCMV; cited from earlier work
GPCMV = tested on: GPCMV; set-up: method as in ref 35, 38 (a number printed in a supplementary file, which may have a reference list of its own: not looked up in the article's list); conditions: Table S1; read-out: antiviral EC50, GPCMV; cited from earlier work
HHV-6A = tested on: HHV-6A; set-up: method as in ref 35 (a number printed in a supplementary file, which may have a reference list of its own: not looked up in the article's list); conditions: Table S1; J-Jhan cells; read-out: antiviral EC50, HHV-6A (J-Jhan); cited from earlier work
HSV-1 = tested on: HSV-1; set-up: method as in ref 35, 38 (a number printed in a supplementary file, which may have a reference list of its own: not looked up in the article's list); conditions: Table S1; read-out: antiviral EC50, HSV-1; cited from earlier work
VZV = tested on: VZV; set-up: method as in ref 35, 38 (a number printed in a supplementary file, which may have a reference list of its own: not looked up in the article's list); conditions: Table S1; read-out: antiviral EC50, VZV; cited from earlier work
KSHV = tested on: KSHV; set-up: method as in ref 35, 38 (a number printed in a supplementary file, which may have a reference list of its own: not looked up in the article's list); conditions: Table S1; read-out: antiviral EC50, KSHV; cited from earlier work
HAdV = tested on: HAdV; set-up: method as in ref 35, 38 (a number printed in a supplementary file, which may have a reference list of its own: not looked up in the article's list); conditions: Table S1; read-out: antiviral EC50, HAdV; cited from earlier work
[11] = human gammaherpesvirus 4, 240 h, EBV, TPA-induced P3HR-1, 10 d, read-out: Antiviral mean EC50 based on qPCR measurements
[12] = Orthopoxvirus vaccinia, 48 h, read-out: Antiviral mean EC50 based on luciferase measurements
[13] = mean CC50, HFF, HHV-6A assay conditions (Fig 2D)
[14] = CC50, Vero, reference compounds (Fig 1E)
[15] = CC50, COS-7, listed with GFP / COS-7 (Fig 1E)

Nc1nc2c(ncn2COCCO)c(=O)[nH]1 [ACV, aciclovir]
EC50 (MHV-68-Luc; MHV-68-Luc, HFF): > 5 µM
EC50 (MHV-68-Luc; MHV-68-Luc, MEF): 22.2 ± 5.5 µM
EC50 (MHV-68-Luc; Vero, MHV-68-Luc): 0.3 ± 0.3 µM
CC50 at 7 d (in vitro [1]): > 100 µM
CC50 (in vitro [2]): > 100 µM
CC50 at 7 d (in vitro [3]): > 100 µM

CC(C)(C)C(=O)OCOP(=O)(COCCn1cnc2c(N)ncnc21)OCOC(=O)C(C)(C)C [ADV, adefovir dipivoxil]
EC50 [4, 11]: 1.7 ± 0.2 µM
CC50 at 10 d (in vitro [5]): 93 µM

Nc1ncnc2c1ncn2CCOCP(=O)(O)O [AFV, adefovir]
EC50 [4, 11]: 13 ± 5 µM
CC50 (in vitro [5]): > 100 µM

CCCCCCCCCCCCCCCCOCCCOP(=O)(O)CO[C@H](CO)Cn1ccc(N)nc1=O [BCV, brincidofovir]
EC50 (EHV-1-GFP): 0.03 ± 0.01 µM
EC50 (EHV-1-GFP; COS-7): 0.04 ± 0.003 µM
EC50 (EHV-1-GFP; Equus caballus, Vero): 0.002 ± 0.003 µM
EC50 (MHV-68-Luc; COS-7, MHV-68-Luc, COS-7): 0.2 ± 0.04 µM
EC50 (MHV-68-Luc; MHV-68-Luc, HFF): > 0.5 µM
EC50 (MHV-68-Luc; MHV-68-Luc, MEF): 0.1 ± 0.07 µM
EC50 (MHV-68-Luc; Vero, MHV-68-Luc): 0.01 ± 0.003 µM
EC50 (vaccinia virus VV IHD-5; [12]): 1.9 ± 0.4 µM
EC50 (HHV-6A-GFP; Human betaherpesvirus 6A): 0.002 ± 0.001 µM
CC50 ([6]; CC50, HFF, reference compounds (Fig 1E)): 19 ± 3 µM
CC50 [6, 13]: > 10 µM
CC50 at 7 d [7]: > 10 µM
CC50 at 7 d ([8]; CC50, Vero (Fig 4F)): > 10 µM
CC50 at 7 d [8, 14]: 1.3 ± 1.4 µM
CC50 at 4 d ([9]; CC50, COS-7 (Fig 4F)): > 10 µM
CC50 at 4 d [9, 15]: 9.8 ± 1.9 µM
CC50 at 2 d [10]: > 10 µM

Nc1ccn(C[C@@H](CO)OCP(=O)(O)O)c(=O)n1 [CDV, cidofovir]
EC50 (EHV-1-GFP; COS-7): 3.2 ± 3.8 µM
EC50 (EHV-1-GFP; Equus caballus, Vero): 4.5 ± 2.4 µM
EC50 (HHV-6A-GFP; Human betaherpesvirus 6A): 0.4 ± 0.1 µM
CC50 [6, 13]: > 100 µM
CC50 at 7 d [8, 14]: > 100 µM
CC50 at 4 d [9, 15]: 85.6 ± 6.6 µM

O=C(O)P(=O)(O)O [FOS, foscarnet]
EC50 (MHV-68-Luc; MHV-68-Luc, HFF): > 500 µM
EC50 (MHV-68-Luc; MHV-68-Luc, MEF): 41.5 ± 17.5 µM
EC50 (MHV-68-Luc; Vero, MHV-68-Luc): 36.4 ± 10.8 µM
CC50 ([6]; CC50, HFF (Fig 4F)): > 1000 µM
CC50 at 7 d [7]: > 1000 µM
CC50 at 7 d ([8]; CC50, Vero (Fig 4F)): > 1000 µM

COc1cccc(N2CCN(C3=Nc4c(F)cccc4[C@H](CC(=O)O)N3c3cc(C(F)(F)F)ccc3OC)CC2)c1 [LMV, letermovir]
EC50 (MHV-68-Luc; MHV-68-Luc, HFF): > 50 µM
EC50 (MHV-68-Luc; MHV-68-Luc, MEF): > 50 µM
EC50 (MHV-68-Luc; Vero, MHV-68-Luc): 44 ± 3.2 µM
EC50 (vaccinia virus VV IHD-5; [12]): > 50 µM

CC(C)Nc1nc2cc(Cl)c(Cl)cc2n1[C@H]1O[C@@H](CO)[C@H](O)[C@@H]1O [MBV, maribavir]
EC50 (MHV-68-Luc; COS-7, MHV-68-Luc, COS-7): > 50 µM
EC50 (MHV-68-Luc; MHV-68-Luc, HFF): 269 ± 55.5 µM
EC50 (MHV-68-Luc; MHV-68-Luc, MEF): 59.6 ± 2.2 µM
EC50 (MHV-68-Luc; Vero, MHV-68-Luc): 88.9 ± 13.6 µM
CC50 ([6]; CC50, HFF (Fig 4F)): 163 ± 9 µM
CC50 at 7 d [7]: 179 ± 10 µM
CC50 at 7 d ([8]; CC50, Vero (Fig 4F)): > 1000 µM
CC50 at 4 d ([9]; CC50, COS-7 (Fig 4F)): > 100 µM

Cc1n[nH]c2ncc(C(=O)N3CCC[C@H]3c3ccc(Cl)cc3)cc12 [MSC-2530818]
EC50 (EHV-1; qPCR / COS-7): 0.7 ± 0.9 µM
EC50 (EHV-1; qPCR / HFF): 0.08 ± 0.2 µM
EC50 ([4]; Table S1, read-out: antiviral EC50, EBV): 1.4 ± 0.6 µM
EC50 (vaccinia virus VV IHD-5; read-out: antiviral EC50, VV): > 50 µM
CDK8 inhibitor sensitivity of SARS-CoV-2 in Caco-2 cells (SARS-CoV-2 d6-YFP; in words): low level of sensitivity
EC50 (SARS-CoV-2 d6-YFP; read-out: Antiviral mean EC50 based on YFP measurements, SARS-CoV-2 d6-YFP, Caco-2, […]): ≥ 15.4 µM
EC50 (SARS-CoV-2 d6-YFP; read-out: antiviral EC50, SARS-CoV-2, Table S1): 15.4 ± 6.4 µM
CC50 (Vero cells): > 100 µM
CC50 (MEFs): > 100 µM
CC50 (P3HR-1 cells): > 100 µM
CC50 (Caco-2 cells): > 100 µM
CC50 (293T-tdTom-Luc cells): > 100 µM
EC50 (HCMV): 0.001 ± 0.0007 µM
EC50 (RhCMV): 0.002 ± 0.001 µM
EC50 (ChCMV): 0.02 ± 0.03 µM
EC50 (MCMV): 0.02 ± 0.02 µM
EC50 (RCMV): 0.003 ± 0.008 µM
EC50 (GPCMV): 0.03 ± 0.05 µM
EC50 (HHV-6A): > 50 µM
EC50 (HSV-1): 42.3 ± 4.9 µM
EC50 (VZV): > 50 µM
EC50 (KSHV): > 40 µM
EC50 (HAdV): 0.3 ± 0.3 µM
EC50 (HHV-6A-GFP; HHV-6A, HFF): 0.2 ± 0.4 µM
